Consider 20 molecules from PubChem BioAssay (NCI).

Where “and” joins values, the source holds several entries; their conditions need not be identical. Identical values can stand only once.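 In this assay, cells in 96-well plates receive the compound at five concentrations for 48 hours. Endpoints are linearly interpolated between the surrounding concentrations. The concentration for 50% growth inhibition is given as GI50. TGI denotes the concentration required for complete inhibition of growth.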

Some test systems named below: UACC-62 melanoma; HS 578T breast; NCI-H226 lung; NCI-H23 lung; MOLT-4 leukemia; HCC-2998 colon; T-47D breast.
Test in all cases: inhibition of tumour cell growth, NCI panel, 48 h

On to `C=C1C(=O)O[C@H]2[C@H]1CC/C(CNC(=O)/C=C/c1ccc(Cl)cc1Cl)=C\CC[C@@]1(C)O[C@@H]21`, for which the GI50 in the assay with UACC-62 melanoma is 1.33 µM; with HS 578T breast it was 2.09 µM; in the assay with NCI-H226 lung, 2.33 µM; with NCI-H23 lung it was 1.4 µM; in the assay on MOLT-4 leukemia it was 0.275 µM; in the assay with HCC-2998 colon it was 1.56 µM. In addition, the GI50 in the assay on T-47D breast is 1.18 µM. Further, the TGI in the assay on UACC-62 melanoma stood at 2.9 µM; in the assay with HS 578T breast, 8.23 µM; with NCI-H226 lung it was 5.72 µM; in the assay on NCI-H23 lung, 3.2 µM; in the assay with MOLT-4 leukemia, 1.58 µM; in the assay with HCC-2998 colon, 2.98 µM. In addition, the TGI in the assay with T-47D breast came to 3.45 µM.
With `Oc1ccc(O)c2c1C1(Cl)C(Cl)=C(Cl)C2(Cl)C1(Cl)Cl`, the GI50 with UACC-62 melanoma is 4.96 µM; in the assay with HS 578T breast, 2.07 µM; in the assay on NCI-H226 lung, 10.7 µM; in the assay with NCI-H23 lung, 5.17 µM; with MOLT-4 leukemia, 2.87 µM; in the assay on HCC-2998 colon, 8.7 µM. Besides, the GI50 with T-47D breast was 5.19 µM. For the same molecule, the TGI with UACC-62 melanoma amounted to 19.5 µM; in the assay on HS 578T breast it was 8.09 µM; in the assay with NCI-H226 lung, 41 µM; with NCI-H23 lung it was 22.1 µM; with MOLT-4 leukemia, 19 µM; in the assay on HCC-2998 colon, 21.3 µM. Further, the TGI in the assay with T-47D breast turned out to be 24.3 µM.
Regarding `Cc1cc(Cl)ccc1Nc1nc(C(F)(F)F)ccc1C(=O)Nc1cccc(C(F)(F)F)c1`, the GI50 is 4 µM with UACC-62 melanoma; 3.95 µM in the assay with HS 578T breast; 4.05 µM in the assay on NCI-H226 lung; 2.85 µM in the assay on NCI-H23 lung; 3.04 µM in the assay with MOLT-4 leukemia; 3.3 µM in the assay with HCC-2998 colon. In addition, in the assay on T-47D breast, the GI50 is 4.53 µM. The TGI is 14.4 µM in the assay on UACC-62 melanoma; 20.2 µM in the assay with HS 578T breast; 17.6 µM in the assay with NCI-H226 lung; 11.1 µM with NCI-H23 lung; 13.3 µM in the assay with MOLT-4 leukemia; 15.7 µM in the assay on HCC-2998 colon. The same molecule registered a TGI with T-47D breast of 23.8 µM.
For the molecule `NCCSC(C[N+](=O)[O-])c1ccccc1Cl` (stereo not drawn), the GI50 in the assay on UACC-62 melanoma is 13.2 µM; in the assay on HS 578T breast, 2.46 µM; with NCI-H226 lung, 2.28 µM; in the assay with NCI-H23 lung, 3.37 µM; in the assay with MOLT-4 leukemia, 10.2 µM; in the assay on HCC-2998 colon it was 2.1 µM. Moreover, the GI50 in the assay with T-47D breast was 2.23 µM. Besides, the TGI is 26.3 µM with UACC-62 melanoma; 7.63 µM with HS 578T breast; 5.55 µM in the assay with NCI-H226 lung; 12 µM in the assay on NCI-H23 lung; more than 25.8 µM with MOLT-4 leukemia; 4.03 µM in the assay on HCC-2998 colon. In addition, the TGI in the assay on T-47D breast was 9.09 µM.
`Cc1ccccc1NC(=O)c1cc2ccccc2cc1O`: the GI50 in the assay with UACC-62 melanoma was 3.48 µM; with HS 578T breast it was 3.12 µM; with NCI-H226 lung it was 3.59 µM; in the assay with NCI-H23 lung, 2.36 µM; with MOLT-4 leukemia, 3.98 µM; in the assay on HCC-2998 colon, 4.4 µM. In addition, in the assay on T-47D breast, the GI50 was 3.51 µM. In addition, the TGI was more than 100 µM with UACC-62 melanoma; 8.38 µM with HS 578T breast; more than 100 µM in the assay with NCI-H226 lung; 6.6 µM in the assay on NCI-H23 lung; more than 100 µM with MOLT-4 leukemia; 26.2 µM with HCC-2998 colon. In the assay with T-47D breast, this molecule yielded a TGI of more than 100 µM.
As for `O=C1C=C(OCCCl)C(=O)c2c(O)ccc(O)c21`, the GI50 in the assay on UACC-62 melanoma is 0.386 µM; with NCI-H23 lung it was 1.5 µM; in the assay on MOLT-4 leukemia it was 0.368 µM; in the assay on HCC-2998 colon, 1.12 µM. Further, the TGI with UACC-62 melanoma was 0.519 µM and 1.61 µM; in the assay with NCI-H226 lung it was 5.07 µM and 4.64 µM; with NCI-H23 lung, 0.503 µM and 3.22 µM; with MOLT-4 leukemia, 6.5 µM and 1.58 µM; with HCC-2998 colon, 3.03 µM and 2.47 µM; in the assay on T-47D breast it was 4.52 µM.
On to `CN(C)N=Nc1nn(C(=O)Nc2ccc(Cc3ccccc3)cc2)c2ccccc12`, for which the GI50 with UACC-62 melanoma is 0.0385 µM; in the assay on HS 578T breast, more than 100 µM; in the assay on NCI-H226 lung, more than 100 µM; with NCI-H23 lung, 7.58 µM; in the assay on MOLT-4 leukemia, 7.47 µM; with HCC-2998 colon, 0.802 µM. Besides, the GI50 in the assay on T-47D breast is 0.0719 µM. In addition, the TGI with UACC-62 melanoma is 1.65 µM; in the assay on HS 578T breast, more than 100 µM; with NCI-H226 lung, more than 100 µM; with NCI-H23 lung, more than 100 µM; in the assay on MOLT-4 leukemia, more than 100 µM; in the assay with HCC-2998 colon, more than 47.7 µM. The same molecule displayed a TGI with T-47D breast of more than 100 µM.
In the case of `Nc1ccccc1C#C/C=C\C#Cc1ccccc1F`, the GI50 in the assay with UACC-62 melanoma is 7.72 µM; in the assay with HS 578T breast, 2.09 µM; in the assay on NCI-H226 lung, 15.2 µM; with NCI-H23 lung, 10.4 µM; in the assay with MOLT-4 leukemia, 2.13 µM; with HCC-2998 colon, 2.25 µM. For the same molecule, the GI50 in the assay with T-47D breast is 8.05 µM. The TGI with UACC-62 melanoma is 21 µM; with HS 578T breast, 5.1 µM; in the assay on NCI-H226 lung it was 33.3 µM; in the assay with NCI-H23 lung it was 26.6 µM; in the assay with MOLT-4 leukemia it was more than 100 µM; in the assay on HCC-2998 colon, 5.26 µM. Moreover, the TGI in the assay on T-47D breast is more than 100 µM.
With `Cn1c2ccccc2c2[nH]c3ccccc3c(=O)c21`, the TGI in the assay on UACC-62 melanoma, in the assay on HS 578T breast, in the assay on NCI-H226 lung, with NCI-H23 lung, with MOLT-4 leukemia and with HCC-2998 colon was more than 100 µM each time. The molecule also had a TGI with T-47D breast of more than 100 µM.
With `COc1ccc(OC)c(/C=N/N=C2\C(=O)Nc3c(Cl)cc(Cl)cc32)c1`, the TGI in the assay on UACC-62 melanoma is more than 100 µM; in the assay on HS 578T breast, 83.5 µM; in the assay on NCI-H226 lung, more than 100 µM; with NCI-H23 lung it was more than 100 µM; with MOLT-4 leukemia it was more than 100 µM; with HCC-2998 colon it was more than 100 µM.
`Clc1ccc(/C=C/c2nc(Cl)c(-c3ccc(Cl)cc3)c(Cl)n2)cc1`: the TGI in the assay on UACC-62 melanoma, in the assay with HS 578T breast, in the assay on NCI-H226 lung, in the assay with NCI-H23 lung, in the assay with MOLT-4 leukemia and in the assay on T-47D breast was more than 100 µM each time.
On to `Cc1cn(Cc2ccccc2CCl)c(=O)n(Cc2ccccc2CCl)c1=O`, for which the GI50 in the assay with UACC-62 melanoma is 1.67 µM; with HS 578T breast, 2.65 µM; with NCI-H23 lung it was 2.19 µM; in the assay with HCC-2998 colon, 1.5 µM. In addition, the TGI with UACC-62 melanoma amounted to 3.16 µM; in the assay on HS 578T breast it was 15.1 µM; with NCI-H23 lung it was 5.43 µM; with HCC-2998 colon it was 2.95 µM.
As for `CC1=NN(c2ccccc2)C(=O)C1N=Nc1ccc(S(N)(=O)=O)cc1` (stereo not drawn), the TGI in the assay on UACC-62 melanoma, in the assay on HS 578T breast, in the assay with NCI-H226 lung, in the assay on NCI-H23 lung, with MOLT-4 leukemia and with T-47D breast was more than 100 µM in each case.
With `COC1OC(C(C)O)C2OC(C)(C)OC12` (stereo not drawn), the TGI in the assay with UACC-62 melanoma, in the assay on HS 578T breast, in the assay on NCI-H226 lung, with NCI-H23 lung, in the assay with MOLT-4 leukemia and in the assay on T-47D breast was more than 100 µM throughout.
Consider `CN(C)CC1=Nc2cccc3cccc(c23)N1`, for which the TGI was 29.6 µM with UACC-62 melanoma; more than 100 µM with HS 578T breast; 37.4 µM with NCI-H226 lung; 49.9 µM with NCI-H23 lung; 32.3 µM in the assay on HCC-2998 colon; 24.6 µM with T-47D breast.
Consider `CC(=O)n1c(-c2ccc(Cl)c(Cl)c2)cn(-c2ccc(Cl)cc2)c1=O`, for which the GI50 with UACC-62 melanoma was 19.8 µM; with HS 578T breast it was 15.5 µM; in the assay with NCI-H226 lung, 24.3 µM; in the assay on MOLT-4 leukemia, 23.3 µM; in the assay with HCC-2998 colon, 91.5 µM; in the assay on T-47D breast it was 19.3 µM. Moreover, the TGI with UACC-62 melanoma was 55.8 µM; in the assay with HS 578T breast, 36.5 µM; with NCI-H226 lung it was 74.5 µM; in the assay on MOLT-4 leukemia, 90.2 µM; with HCC-2998 colon, more than 100 µM; in the assay with T-47D breast it was 49.5 µM.
For `CC(C)=CCc1cc(C2COc3cc4c(c(O)c3C2=O)C=CC(C)(C)O4)c(O)cc1O` (stereo not drawn), the TGI is 32.9 µM in the assay on UACC-62 melanoma; 39.9 µM in the assay with HS 578T breast; 32.6 µM in the assay on NCI-H23 lung; 20.7 µM in the assay with MOLT-4 leukemia; 32.7 µM in the assay with HCC-2998 colon; 27.2 µM in the assay with T-47D breast.
Regarding `COc1ccc2c(c1OC)C(=O)O[C@@H]2[C@H]1c2c(c(Br)c3c(c2OC)OCO3)CCN1C`, the GI50 with UACC-62 melanoma is 4.31 µM; in the assay with HS 578T breast, 31.4 µM; in the assay on NCI-H226 lung, 44.1 µM; in the assay with NCI-H23 lung, more than 100 µM; in the assay with MOLT-4 leukemia it was 4.09 µM; in the assay with T-47D breast, 80.5 µM. For the same molecule, the TGI in the assay on UACC-62 melanoma, with HS 578T breast, with NCI-H226 lung, in the assay on NCI-H23 lung, in the assay with MOLT-4 leukemia and in the assay on T-47D breast was more than 100 µM throughout.
Take `COc1cc2c(cc1OCCCCCn1c3ccccc3c3ccccc31)N=C[C@@H]1CCCN1C2=O`: the GI50 in the assay on UACC-62 melanoma is 1.86 µM; with NCI-H226 lung it was 2.49 µM; with NCI-H23 lung, 2.69 µM; in the assay with MOLT-4 leukemia, 2.15 µM; with HCC-2998 colon, 1.71 µM; in the assay on T-47D breast it was 2.79 µM. The TGI in the assay with UACC-62 melanoma is 3.8 µM; in the assay on NCI-H226 lung, 8.48 µM; in the assay on NCI-H23 lung, 7.04 µM; with MOLT-4 leukemia it was 6.11 µM; with HCC-2998 colon, 3.18 µM; in the assay on T-47D breast it was 9.24 µM.
With `COc1ccc(C=C2C(=O)NC(=O)NC2=O)cc1OCc1ccccc1`, the values for the GI50 with HS 578T breast, with NCI-H226 lung and with NCI-H23 lung were 27.1 µg/mL, 49.1 µg/mL and 31.7 µg/mL, respectively.
